How the values were obtained:
KYSE-520 cell line = assay: Antiproliferative activity against human KYSE520 cells assessed as reduction in cell viability by WST-8 assay
[1] = Oral bioavailability in Sprague-Dawley rat at 10 mg/kg by LC-MS analysis; type: ADME, organism-based; conditions: in vivo
[2] = biological target: T1, Tyrosine-protein phosphatase non-receptor type 11 (Homo sapiens, UniProt Q06124); assay: Inhibition of human SHP2
T1 sequence (Q06124 whole entry): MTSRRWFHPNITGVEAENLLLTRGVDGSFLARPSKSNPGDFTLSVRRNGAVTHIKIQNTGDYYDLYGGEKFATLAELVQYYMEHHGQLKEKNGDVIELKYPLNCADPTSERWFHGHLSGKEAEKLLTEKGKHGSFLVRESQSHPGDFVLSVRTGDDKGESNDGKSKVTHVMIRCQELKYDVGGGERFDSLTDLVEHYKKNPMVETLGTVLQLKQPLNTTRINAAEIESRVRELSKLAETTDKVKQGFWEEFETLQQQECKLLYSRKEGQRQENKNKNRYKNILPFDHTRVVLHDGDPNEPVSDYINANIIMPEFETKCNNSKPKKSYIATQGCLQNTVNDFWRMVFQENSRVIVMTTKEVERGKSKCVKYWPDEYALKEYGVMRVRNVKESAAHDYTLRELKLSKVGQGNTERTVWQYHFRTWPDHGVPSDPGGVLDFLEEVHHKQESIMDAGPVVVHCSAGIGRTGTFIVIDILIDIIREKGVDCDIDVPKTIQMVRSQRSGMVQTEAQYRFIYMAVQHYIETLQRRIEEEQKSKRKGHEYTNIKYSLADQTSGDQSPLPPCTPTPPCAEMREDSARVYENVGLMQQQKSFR

[3] = Oral bioavailability in human; type: ADME, organism-based; conditions: in vivo

CC1(N)CCN(c2cnc3c(Sc4ccncc4Cl)n[nH]c3n2)CC1
IC50 (KYSE-520 cell line): 5.73 µM
bioavailability [1]: 42.5%

C[C@H]1OCC2(CCN(c3cnc(Sc4ccnc(NC(=O)CCCCCCNC(=O)c5cccnc5)c4Cl)c(N)n3)CC2)[C@H]1N
IC50 [2]: < 0.01 µM

CC1(N)CCN(c2cnc(-c3cccc(Cl)c3Cl)c(N)n2)CC1
bioavailability [3]: 46%
